Reference: ChEMBL document CHEMBL4825731, “[11C]CHDI-626, a PET Tracer Candidate for Imaging Mutant Huntingtin Aggregates with Reduced Binding to AD Pathological Proteins” (J Med Chem, 2021)

Experiments:
[1] = biological target: Amyloid-beta precursor protein (Homo sapiens) (UniProt P05067); assay: Displacement of [3]10-methoxy-N-(pyridin-3-yl-7-thia-2,5-diazatricyclo(6.4.0.0 2.6)-dodeca-1(12),3,5,8,10-pentaene-4-carboxamide from human Amyloid beta plaques using AD postmortem patient brain homogenates at 1 uM incubated for 2 hr by radio ligand binding assay relative to control; assay type: tissue-based
[2] = Displacement of [3]10-methoxy-N-(pyridin-3-yl-7-thia-2,5-diazatricyclo(6.4.0.0 2.6)-dodeca-1(12),3,5,8,10-pentaene-4-carboxamide from polyglutamine Q46 aggregate (unknown origin) by radio ligand binding assay; set-up: species or system Homo sapiens
[3] = Fraction unbound in mouse brain homogenate at 5 uM incubated for 6 hrs shaking at 250 rpm by LC-MS/MS analysis; assay type: ADME, tissue-based
MDR1 = assay: Efflux ratio of apparent permeability in MDCK cells expressing human MDR1; assay type: ADME, cell-based, Canis lupus familiaris; details: dog
BCRP = assay: Efflux ratio of apparent permeability in MDCK cells expressing human BCRP; assay type: ADME, cell-based, Canis lupus familiaris; details: dog
[4] = AUC (5 to 60 min) in C57BL/6 mouse brain at 0.05 mg/kg, iv; assay type: ADME, organism-based; set-up: dose 0.05 mg/kg
[5] = Apparent permeability in MDCK cells; assay type: ADME, cell-based, Canis lupus familiaris; details: dog
[6] = Half life in mouse liver microsomes; assay type: ADME, Microsome
[7] = Fraction unbound in brain concentration ratio in C57BL/6 mouse at 0.05 mg/kg, iv; assay type: ADME, organism-based
[8] = Unbound brain-to-plasma concentration ratio in C57BL/6 mouse at 0.05 mg/kg, iv; assay type: ADME, organism-based; details: brain and plasma, read-out: K(p,uu,brain)
[9] = Fraction unbound in plasma concentration ratio in C57BL/6 mouse at 0.05 mg/kg, iv; assay type: ADME, organism-based
[10] = Cmax in C57BL/6 mouse brain at 0.05 mg/kg, iv; assay type: ADME, organism-based; set-up: route intravenous, dose 0.05 mg/kg
[11] = Drug metabolism in C57BL/6 mouse brain assessed as oxidative metabolite M2a at 0.05 mg/kg, iv; assay type: ADME, organism-based; details: in vivo
[12] = Half life in cynomolgus monkey liver microsomes; assay type: ADME, Macaca fascicularis, Microsome
[13] = Half life in human liver microsomes; assay type: ADME, Microsome
[14] = Stability in human plasma assessed as half life; assay type: ADME, cell-free
[15] = Stability in mouse plasma assessed as half life; assay type: ADME, cell-free
[16] = Drug metabolism in C57BL/6 mouse plasma assessed as oxidative metabolite M2a at 0.05 mg/kg, iv; assay type: ADME, organism-based; details: in vivo
[17] = AUC in Rhesus macaque brain to plasma ratio treated bolus injected into sural vein for 5 secs measured 30 to 120 mins by PET analysis; assay type: ADME, organism-based, Macaca mulatta; details: rhesus monkey, iv, time 30-120 min
[18] = Cmax in Rhesus macaque brain treated bolus injected into sural vein for 5 secs measured 30 to 120 mins by PET analysis; assay type: ADME, organism-based, Macaca mulatta; set-up: time upper 120 min, time lower 30 min; details: rhesus monkey, in vivo, iv
[19] = Cmax in Cynomolgus macaque brain treated bolus injected into sural vein for 5 secs measured 30 to 120 mins by PET analysis; assay type: ADME, organism-based, Macaca fascicularis; set-up: time upper 120 min, time lower 30 min; details: cynomolgus monkey, in vivo, iv
[20] = Tmax in Cynomolgus macaque brain treated bolus injected into sural vein for 5 secs by PET analysis; assay type: ADME, organism-based, Macaca fascicularis; details: cynomolgus monkey, in vivo, iv, 5 s; time 5 sec
[21] = Tmax in Rhesus macaque brain treated bolus injected into sural vein for 5 secs measured 30 to 120 mins by PET analysis; assay type: ADME, organism-based, Macaca mulatta; details: rhesus monkey, in vivo, iv; time 30-120 min
[22] = AUC in Cynomolgus macaque brain to plasma ratio treated bolus injected into sural vein for 5 secs measured 30 to 120 mins by PET analysis; assay type: ADME, organism-based, Macaca fascicularis; details: cynomolgus monkey, iv, time 30-120 min

Amyloid-beta precursor protein (Homo sapiens), sequence (P05067 whole entry): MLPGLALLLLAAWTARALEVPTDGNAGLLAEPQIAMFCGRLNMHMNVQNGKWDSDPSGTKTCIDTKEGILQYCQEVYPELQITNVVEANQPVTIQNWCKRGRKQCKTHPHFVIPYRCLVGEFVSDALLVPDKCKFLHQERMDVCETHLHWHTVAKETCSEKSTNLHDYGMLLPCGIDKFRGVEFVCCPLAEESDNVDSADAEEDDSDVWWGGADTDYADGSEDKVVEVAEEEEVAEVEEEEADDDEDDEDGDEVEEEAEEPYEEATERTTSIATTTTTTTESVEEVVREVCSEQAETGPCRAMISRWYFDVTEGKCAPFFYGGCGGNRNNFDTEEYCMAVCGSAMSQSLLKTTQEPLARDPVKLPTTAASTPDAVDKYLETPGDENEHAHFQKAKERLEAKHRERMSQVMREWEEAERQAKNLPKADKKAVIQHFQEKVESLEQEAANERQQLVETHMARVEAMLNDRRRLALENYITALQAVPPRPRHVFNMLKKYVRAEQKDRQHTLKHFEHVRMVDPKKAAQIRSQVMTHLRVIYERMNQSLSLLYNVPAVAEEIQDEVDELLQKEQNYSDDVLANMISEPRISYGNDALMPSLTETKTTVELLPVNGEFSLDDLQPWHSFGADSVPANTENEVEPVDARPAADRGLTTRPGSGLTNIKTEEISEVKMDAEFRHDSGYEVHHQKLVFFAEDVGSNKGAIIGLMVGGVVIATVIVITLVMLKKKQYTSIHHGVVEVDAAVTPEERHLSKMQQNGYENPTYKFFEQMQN

| SMILES | Activity [1] [%] | IC50 ([2]; read-out: IC50) [nM] | fraction unbound at 6 h, 5 µM [3] | also measured |
| --- | --- | --- | --- | --- |
| CNc1ccc(-c2cn3c(n2)sc2cc(OCCF)ccc23)cc1 | 130 | 5.7 |  |  |
| COc1ccc2c(c1)nc1nc(C(=O)Nc3cnc(C)c(C)c3)ccn12 |  |  |  | Fu ([3]; 6 h, 5 µM): Nd(Insoluble); IC50 [2]: Nd(Insoluble) |
| COc1ccc(NC(=O)c2ccc3c4cnccc4n(C(=O)OC(C)(C)C)c3n2)cn1 |  | 2.8 | 0.03 | efflux ratio (MDR1): 2; efflux ratio (BCRP): > 7.3 |
| COc1cncc(NC(=O)c2ccn3c(n2)nc2ccccc23)c1 | 25 | 3.5 | 0.21 | AUC(0-t) [4]: 2 nM·h; Papp [5]: 125 nm/s; half-life [6]: 4 min; fraction unbound [7]: 0.21; Kp uu [8]: 1; fraction unbound [9]: 0.07; Cmax [10]: 0.017 µM; Drug metabolism [11]: Metabolite_Detected; half-life [12]: 4 min; half-life [13]: 12 min; half-life [14]: > 480 min; efflux ratio (MDR1): 0.8; half-life [15]: 215 min; Drug metabolism [16]: Metabolite_Detected; efflux ratio (BCRP): 2.7 |
| COc1ccc2c(c1)nc1nc(C(=O)Nc3ccncn3)ccn12 | 30 | 9.2 | 0.23 |  |
| COc1ccc(NC(=O)c2ccc3c(n2)oc2ccncc23)cn1 |  | 3.3 | 0.06 |  |
| C#CCCCNC(=O)c1ccn2c(n1)nc1cc(OC)ccc12 |  | 72 | 0.22 |  |
| Cn1cc(NC(=O)c2ccn3c(n2)nc2ccccc23)ccc1=O |  | 26 | 0.46 |  |
| O=C(Nc1cccnc1)c1ccn2c(n1)nc1ccccc12 | -12 | 39 | 0.21 |  |
| COc1ccc(NC(=O)c2ccnc(Nc3ccncc3)n2)cn1 |  | 5.3 | 0.02 |  |
| COc1ncc(NC(=O)c2ccn3c(n2)nc2ccccc23)cc1C | -29 | 2.8 | 0.03 |  |
| O=C(Nc1ccccn1)c1ccn2c(n1)nc1ccccc12 | 24 | 8.4 | 0.29 |  |
| COc1ccc(COc2ccn3c(n2)nc2ccccc23)cn1 |  | 54 | 0.08 | efflux ratio (MDR1): 0.5; efflux ratio (BCRP): 0.5 |
| COc1ccc2c(c1)sc1nc(C(=O)Nc3cccnc3)cn12 | 100 | 4.3 | 0.03 |  |
| COc1ccc2c(c1)nc1nc(C(=O)Nc3ccccn3)ccn12 | 41 | 6.8 | 0.18 |  |
| Cn1cc(NC(=O)c2ccn3c(n2)nc2ccccc23)cnc1=O |  | 302 | 0.7 |  |
| COc1ccc(COc2ccn3c(n2)nc2ccccc23)nc1 |  | 48 |  | efflux ratio (MDR1): 0.5; efflux ratio (BCRP): 1.3 |
| Cc1cc(NC(=O)c2ccn3c(n2)nc2ccccc23)cnc1C | 21 | 1.4 | 0.02 |  |
| COc1ccc2c(c1)nc1nc(C(=O)NC3CC3)ccn12 |  | 351 | 0.24 |  |

| SMILES | Activity [1] [%] | IC50 ([2]; read-out: IC50) [nM] | fraction unbound at 6 h, 5 µM [3] | also measured |
| --- | --- | --- | --- | --- |
| COc1ccc(C(=O)Nc2ccn3c(n2)nc2ccccc23)cn1 |  | 1.6 | 0.16 | efflux ratio (MDR1): 0.5; efflux ratio (BCRP): 2.1 |
| COc1ccc(NC(=O)c2ccc3c4cnccc4n(C)c3n2)cn1 |  | 1.3 | 0.04 |  |
| COc1ccc2c(c1)nc1nc(C(=O)N3Cc4cccnc4C3)ccn12 | 0 | 4.1 | 0.32 |  |
| FCCC1CCN(c2ccn3c(n2)nc2ccccc23)CC1 | 34 | > 333 | 0.12 |  |
| [11CH3]Oc1ccc(NC(=O)c2ccn3c(n2)nc2ccccc23)cn1 |  | 3.6 | 0.11 | AUC(0-t) [4]: 3 nM·h; Ratio AUC [17]: 0.9; Papp [5]: 94 nm/s; half-life [6]: 8 min; fraction unbound [7]: 0.11; Kp uu [8]: 0.9; fraction unbound [9]: 0.09; Cmax [10]: 0.021 µM; half-life [12]: 1 min; Cmax [18]: 3.2 %ID; Cmax [19]: 3.5 %ID; Tmax [20]: 0.8 min; Tmax [21]: 0.8 min; half-life [13]: 8 min; half-life [14]: 127 min; efflux ratio (MDR1): 0.5; half-life [15]: 100 min; Ratio AUC [22]: 0.3; efflux ratio (BCRP): 0.9 |
| COc1cncc(NC(=O)c2ccn3c(n2)nc2cc(OC)ccc23)c1 | 5 | 2.1 | 0.15 |  |
| Cn1nc(NC(=O)c2ccn3c(n2)nc2ccccc23)ccc1=O | 12 | 16 | 0.37 |  |
| O=C(Nc1ccc(=O)[nH]c1)c1ccn2c(n1)nc1ccccc12 |  | 45 | 0.64 |  |
| COc1ccc2c(c1)nc1nc(C(=O)NC3CCCc4cccnc43)ccn12 (configuration not stated) | 8 | 48 | 0.17 |  |
| COc1cc(NC(=O)c2ccn3c(n2)nc2ccccc23)cnc1OC | 21 | 5.8 | 0.1 |  |
| COc1ccc2c(c1)nc1nc(C(=O)N3CC(N4CCOCC4)C3)ccn12 |  | 401 |  |  |
| COc1ccc(COc2ccc3oc(-c4ccc(=O)n(C)n4)nc3c2)nc1 |  |  |  | AUC(0-t) [4]: 65 nM·h; Cmax [10]: 0.124 µM |
| COc1ccc2c(c1)nc1nc(C(=O)Nc3cccnn3)ccn12 |  | 17 | 0.54 |  |
| COc1ccc2c(c1)nc1nc(C(=O)Nc3ccc(=O)n(C)n3)ccn12 |  | 12 | 0.25 |  |
| CN(C(=O)c1ccn2c(n1)nc1ccccc12)c1ccc(=O)[nH]c1 |  | > 1000 | 0.51 |  |
| COc1ccc2c(c1)nc1nc(C(=O)Nc3ccc(OC)nc3)ccn12 | 13 | 2.3 | 0.1 |  |
| COc1ccc2c(c1)nc1nc(C(=O)Nc3cccnc3)ccn12 | 17 | 10 | 0.15 |  |
| COc1ccc(NC(=O)c2ccc3c(c2)nc2ncccn23)cn1 |  | 69 | 0.38 | efflux ratio (MDR1): 0.6; efflux ratio (BCRP): 25 |
